# Results from ChEMBL document CHEMBL4431323, “Synthesis and carbonic anhydrase inhibitory effects of new N-glycosylsulfonamides incorporating the phenol moiety” (Bioorg Med Chem Lett, 2016).
# Legend:
# Carbonic anhydrase 9 = Carbonic anhydrase 9 (Homo sapiens, UniProt Q16790); experiment: Inhibition of human carbonic anhydrase 9 incubated for 15 mins prior to testing by stopped flow CO2 hydration assay
# Carbonic anhydrase 12 = Carbonic anhydrase 12 (Homo sapiens, UniProt O43570); experiment: Inhibition of human carbonic anhydrase 12 incubated for 15 mins prior to testing by stopped flow CO2 hydration assay
# Chain of Carbonic anhydrase 12 (O43570 whole entry): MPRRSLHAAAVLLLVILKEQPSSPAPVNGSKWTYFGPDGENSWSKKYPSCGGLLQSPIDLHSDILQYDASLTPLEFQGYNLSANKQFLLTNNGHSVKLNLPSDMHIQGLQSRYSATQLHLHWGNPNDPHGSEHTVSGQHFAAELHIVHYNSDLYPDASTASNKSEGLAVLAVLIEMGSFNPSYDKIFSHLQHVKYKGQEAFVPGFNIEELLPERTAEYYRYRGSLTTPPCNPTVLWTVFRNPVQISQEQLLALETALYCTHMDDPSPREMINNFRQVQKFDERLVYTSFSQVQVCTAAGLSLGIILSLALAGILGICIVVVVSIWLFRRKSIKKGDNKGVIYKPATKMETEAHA
Compound,Ki (Carbonic anhydrase 9) [µM],Ki (Carbonic anhydrase 12) [µM]
NS(=O)(=O)c1ccc(O)cc1,0.235,0.176
O=S(=O)(N[C@H]1C=C[C@@H](O)[C@@H](CO)O1)c1ccc(O)cc1,> 50,> 50
O=S(=O)(N[C@@H]1C=C[C@@H](O)[C@@H](CO)O1)c1ccc(O)cc1,> 50,> 50
CC(=O)OC[C@H]1O[C@@H](NS(=O)(=O)c2ccc(O)cc2)C=C[C@H]1OC(C)=O,> 50,> 50
CC(=O)OC[C@H]1O[C@H](NS(=O)(=O)c2ccc(O)cc2)C=C[C@H]1OC(C)=O,> 50,> 50
O=S(=O)(NC1C=C[C@H](O)[C@@H](CO)O1)c1ccc(O)cc1 (stereo partly drawn),> 50,> 50
CC(=O)OC[C@H]1OC(NS(=O)(=O)c2ccc(O)cc2)C(OC(C)=O)=C[C@@H]1OC(C)=O (stereo partly drawn),> 50,> 50
O=C1C[C@H](O)[C@@H](CO)OC1NS(=O)(=O)c1ccc(O)cc1 (stereo partly drawn),> 50,> 50
CC(=O)OC[C@H]1OC(NS(=O)(=O)c2ccc(O)cc2)C=C[C@@H]1OC(C)=O (relative stereo),> 50,> 50
